ChEMBL document CHEMBL4049422, “Discovery of Novel Indazole Derivatives as Orally Available β3-Adrenergic Receptor Agonists Lacking Off-Target-Based Cardiovascular Side Effects” (J Med Chem, 2017)

Target: T1, Alpha-1A adrenergic receptor (Homo sapiens, UniProt P35348)
T1 sequence (P35348 whole entry): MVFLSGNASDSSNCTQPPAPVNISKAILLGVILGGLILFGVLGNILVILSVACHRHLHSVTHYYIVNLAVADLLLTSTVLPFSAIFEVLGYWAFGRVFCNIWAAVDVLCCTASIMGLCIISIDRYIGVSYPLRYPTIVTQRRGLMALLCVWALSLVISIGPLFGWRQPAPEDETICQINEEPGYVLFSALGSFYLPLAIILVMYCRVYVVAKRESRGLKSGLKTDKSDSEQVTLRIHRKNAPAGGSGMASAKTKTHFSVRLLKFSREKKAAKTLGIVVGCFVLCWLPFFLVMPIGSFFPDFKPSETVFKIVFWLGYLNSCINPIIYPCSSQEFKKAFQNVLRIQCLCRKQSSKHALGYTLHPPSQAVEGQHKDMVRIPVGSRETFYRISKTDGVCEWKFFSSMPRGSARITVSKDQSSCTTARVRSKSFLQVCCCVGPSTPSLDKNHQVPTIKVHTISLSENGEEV
Experiment: Agonist activity at recombinant human alpha1A adrenergic receptor expressed in HEK293 cells assessed as intercellular Ca mobilization by Fura-2AM dye-based fluorescence assay
Format: cell-based

- EC50: > 10 µM
Structure (SMILES): Cc1n[nH]c2cc(OCCNC[C@H](O)c3cccc(NS(=O)(=O)C4CCC4)c3)ccc12
